Like-named read-outs stand apart in the source and are kept apart here. *1 amine or outer side, *2 acyl side, *3 side chain or, on linkers, in order; H or OH if unused. Where a SMILES comes first, the peptide text is derived from it. Bridges are numbered along the chain shown (N, C = ends). [ ]: non-standard residue; d: D form. The star is where a group is joined. Me3N+(CH2)2O(CH2)2O(CH2)2CO = C[N+](C)(C)CCOCCOCCC(=O)*; Trp(7-Me) = Cc1cccc2c(C[C@H](N)C(=O)O)c[nH]c12; 2Nal = N[C@@H](Cc1ccc2ccccc2c1)C(=O)O; AEF = NCCOc1ccc(C[C@H](N)C(=O)O)cc1; X20 = O=C(c1ccc(CCN[*:1])cc1)[*:2]; X1 = O=C(Cc1ccc(CN[*:1])cc1)[*:2]; 3Pal = N[C@@H](Cc1cccnc1)C(=O)O; αMeL = CC(C)C[C@](C)(N)C(=O)O; CH2COCH2 = O=C(C[*:1])C[*:2]; αMeV = CC(C)[C@](C)(N)C(=O)O; 3Amb = NCc1cccc(C(=O)O)c1; dDab = NCC[C@@H](N)C(=O)O; Pyrrolidide = C1CCN(*)C1; Dab = NCC[C@H](N)C(=O)O; βAla = NCCC(=O)O
Biological target: T1, human IL-23R (Homo sapiens, UniProt Q5VWK5)
T1 construct: UniProtKB—Q5VWK5, amino acids 22-629; secretion signal of the plasmid (Promega N1371); expressed in transfected cells
T1 sequence (Q5VWK5 22-629): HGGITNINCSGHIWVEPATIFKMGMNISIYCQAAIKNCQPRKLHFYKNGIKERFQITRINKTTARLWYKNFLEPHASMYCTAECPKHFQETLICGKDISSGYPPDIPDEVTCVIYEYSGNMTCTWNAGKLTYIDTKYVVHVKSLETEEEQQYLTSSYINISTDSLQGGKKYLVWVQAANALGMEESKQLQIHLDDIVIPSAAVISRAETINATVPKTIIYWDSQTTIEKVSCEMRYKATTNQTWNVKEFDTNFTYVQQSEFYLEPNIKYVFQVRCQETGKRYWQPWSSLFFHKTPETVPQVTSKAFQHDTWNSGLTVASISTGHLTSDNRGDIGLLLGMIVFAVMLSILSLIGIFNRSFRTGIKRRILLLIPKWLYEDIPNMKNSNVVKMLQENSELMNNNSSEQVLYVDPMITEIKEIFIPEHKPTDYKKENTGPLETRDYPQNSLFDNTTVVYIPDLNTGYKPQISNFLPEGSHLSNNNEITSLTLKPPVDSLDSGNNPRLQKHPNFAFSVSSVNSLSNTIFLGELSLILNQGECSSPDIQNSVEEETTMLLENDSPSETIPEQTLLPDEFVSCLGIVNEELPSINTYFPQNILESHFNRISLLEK
Experiment: Binding assay (NanoBRET displacement of fluorophore-labelled reference compound) for estimating binding affinity to human IL-23R
Excerpt: Binding Assay for Estimating Binding Affinity of Compounds to Human IL-23R
The compound binding affinity for IL-23R was estimated by the ability of compounds to displace a fluorophore-labelled reference compound from the human IL-23R. The assay principle relies on Bioluminescence Resonance Energy Transfer (BRET) between a fluorophore-labelled reference compound binding to the IL-23R part of a fusion protein consisting of the IL-23R fused to a Nanoluc luciferase enzyme (Nanoluc). The Nanoluc is placed in the N-terminus in close proximity to the binding domain of the ligand. Upon close proximity between the fluorophore of the fluorophore-labelled compound and the Nanoluc of the fusion protein, bioluminescence energy generated from conversion of a Nanoluc substrate, is transferred to the fluorophore resulting in an increase in BRET. In presence of an unlabelled compound, the unlabelled compound displaces the fluorophore-labelled peptide from its binding site resulting in a decrease in BRET. The concentration for which half of the fluorophore-labelled peptide is displaced by the unlabelled compound depends on the affinity of the compound for the IL-23R, and is termed the IC50 concentration. An estimated affinity (K) of the unlabelled compound for the IL-23R may be calculated using the Cheng-Prussov equation, which takes into account the concentration of the fluorophore-labelled compound used, and the affinity of the fluorophore-labelled compound for IL-23R.
The plasmid also contained a gene to confer resistance for the antibiotic hygromycin. A cell line stably expressing the Nluc-IL23R fusion protein was generated by transfection of HEK293 cells with the expression plasmid and selected with hygromycin for 3 weeks in Growth medium consisting of DMEM w/Glutamax-I containing, 10% V/V FBS, 1% V/V P/S, 1 mM Sodium Pyruvate, and 1×NEAA, and 0.3 mg/mL hygromycin. The remaining cells were propagated and considered a stable expressing Nluc-IL23R fusion protein pool clone.
Cells expressing the Nluc-IL23R fusion protein were expanded in Growth medium and membranes prepared by homogenization of a cell pellet from 18 T175 flasks (4° C. in subsequent steps). The cell pellet was lysed Tris 10 mM, 7.5, 1 mM EDTA and protease inhibitors (Complete, Roche) and homogenized using a 15 mL glass-dounce by 50 strokes. The homogenate was spun at spin @1500 rpm for 10 min, the supernatant transferred to SV-34 tubes and spun at 40000 g for 20 min at 4° C. to pellet the crude membranes. The supernatant was then removed, the pellet resuspended in 5 mL buffer containing 50 mM HEPES pH 7.4, 5 mM EGTA, and 5 mM MgCl2, and homogenized. Aliquots of the resuspended and homogenized membranes containing the Nluc-IL23R fusion protein were stored at −80° C. until use.
The plate was sealed with light impermeable plate seals, and incubated on a orbital shaker 400 rpm for 2 hours at room temperature. To determine the BRET ratio, the plate seal was removed and 25 μL of the Nanoluc substrate (Promega N1572) diluted 1:500 was added to each well and incubated for 1-2 minutes on an orbital shaker at 400 rpm. […] The BRET ratio was calculated as the fluorescence from the TAMRA/nanoluc bioluminescence. The IC50 for each compound was determined by computer-aided curve fitting using a 4-parameter logistic (4PL) non-linear model.

[1] = Table 3-1, read-out: Ki hIL-23R

## CC(C)C[C@]1(C)NC(=O)[C@H](Cc2ccc3ccccc3c2)NC(=O)[C@H](Cc2ccc(OCCN)cc2)NC(=O)[C@@H]2CSCC(=O)CSC[C@H](NC(=O)[C@H](CO)NC(=O)c3ccc(cc3)CCNC(=O)CC[C@@H](C(=O)N[C@@H](CCCNC(=N)N)C(N)=O)NC1=O)C(=O)N[C@@H](Cc1c[nH]c3ccccc13)C(=O)N[C@@H](CCC(N)=O)C(=O)N2 [Compound 50, [4-(2-Aminoethyl)benzoyl](1c)*SC(2a)WQC(2a)[Y(2-aminoethoxy)][2-Nal][2-Me-Leu]E(1c)R-[NH2]] ([X20]SCWQC[AEF][2Nal][αMeL]ER-NH2; linker 3-6 via CH2COCH2; lactam N-10)
Table 2-10b, read-out: Ki IL-23R
  Ki: 5090 pM
[1]
  Ki: 5100 pM

## CC(C)C[C@]1(C)NC(=O)[C@H](Cc2ccc3ccccc3c2)NC(=O)[C@H](Cc2ccc(OCCN)cc2)NC(=O)[C@@H]2CSCC(=O)CSC[C@H](NC(=O)[C@H](CO)NC(=O)c3cccc(c3)CNC(=O)CC[C@@H](C(=O)N[C@@H](CCN)C(=O)N[C@@H](Cc3cccnc3)C(N)=O)NC1=O)C(=O)N[C@@H](Cc1c[nH]c3ccccc13)C(=O)N[C@@H](CCC(N)=O)C(=O)N2 [Compound 148, [(3-Aminomethyl)benzoyl](1c)*SC(2a)WQC(2a)[Y(2-aminoethoxy)][2-Nal][2-Me-Leu]E(1c)[Dab][3-(3-Pyridyl)-Ala]-[NH2]] ([3Amb]SCWQC[AEF][2Nal][αMeL]E[Dab][3Pal]-NH2; linker 3-6 via CH2COCH2; lactam N-10)
[1]
  Ki: 8.97 pM

## CC(=O)N[C@H]1CCCCNC(=O)CC[C@@H](C(=O)N[C@H](CCCNC(=N)N)C(N)=O)NC(=O)[C@](C)(CC(C)C)NC(=O)[C@H](Cc2ccc3ccccc3c2)NC(=O)[C@H](Cc2ccc(OCCN)cc2)NC(=O)[C@@H]2CSCC(=O)CSC[C@H](NC(=O)[C@H](CO)NC1=O)C(=O)N[C@@H](Cc1c[nH]c3ccccc13)C(=O)N[C@@H](CCC(N)=O)C(=O)N2 [Compound 84, [Ac]-K(1c)SC(2a)WQC(2a)[Y(2-aminoethoxy)][2-Nal][2-Me-Leu]E(1c)[{d}R]-[NH2]] (Ac-KSCWQC[AEF][2Nal][αMeL]E[dR]-NH2; lactam 1-10; linker 3-6 via CH2COCH2)
[1]
  Ki: 922 pM

## Cc1cccc2c(C[C@@H]3NC(=O)[C@@H]4CSCC(=O)CSC[C@H](NC(=O)[C@H](CCC(N)=O)NC3=O)C(=O)N[C@@H](Cc3ccc(OCCN)cc3)C(=O)N[C@@H](Cc3ccc5ccccc5c3)C(=O)N[C@@](C)(CC(C)C)C(=O)N[C@H](C(=O)N[C@@H](CCCNC(=N)N)C(N)=O)CCC(=O)NCc3cccc(c3)C(=O)N[C@@H](CO)C(=O)N4)c[nH]c12 [Compound 70, [(3-Aminomethyl)benzoyl](1c)*SC(2a)[7-Me-Trp]QC(2a)[Y(2-aminoethoxy)][2-Nal][2-Me-Leu]E(1c)R-[NH2]] ([3Amb]SC[Trp(7-Me)]QC[AEF][2Nal][αMeL]ER-NH2; linker 3-6 via CH2COCH2; lactam N-10)
[1]
  Ki: 485 pM

## CC(C)C[C@]1(C)NC(=O)[C@H](Cc2ccc3ccccc3c2)NC(=O)[C@H](Cc2ccc(OCCN)cc2)NC(=O)[C@@H]2CSCC(=O)CSC[C@H](NC(=O)[C@H](CO)NC(=O)Cc3ccc(cc3)CNC(=O)CC[C@@H](C(=O)N[C@H](CCNC(=O)CCOCCOCC[N+](C)(C)C)C(N)=O)NC1=O)C(=O)N[C@@H](Cc1c[nH]c3ccccc13)C(=O)N[C@@H](CCC(N)=O)C(=O)N2 [Compound 109, [4-Aminomethyl-phenylacetyl](1c)*SC(2a)WQC(2a)[Y(2-aminoethoxy)][2-Nal][2-Me-Leu]E(1c)[{d}2,4-Diaminobutanoyl([2-(trimethyl-2-aminoethoxy)ethoxy]propyl)]-[NH2]] ([X1]SCWQC[AEF][2Nal][αMeL]E[dDab](Me3N+(CH2)2O(CH2)2O(CH2)2CO)-NH2; linker 3-6 via CH2COCH2; lactam N-10)
[1]
  Ki: 460 pM

## CC(C)C[C@]1(C)NC(=O)[C@H](Cc2ccc3ccccc3c2)NC(=O)[C@H](Cc2ccc(OCCN)cc2)NC(=O)[C@@H]2CSCC(=O)CSC[C@H](NC(=O)[C@H](CO)NC(=O)Cc3ccc(cc3)CNC(=O)CC[C@@H](C(=O)NCCC(N)=O)NC1=O)C(=O)N[C@@H](Cc1c[nH]c3ccccc13)C(=O)N[C@@H](CCC(N)=O)C(=O)N2 [Compound 119, [4-Aminomethyl-phenylacetyl](1c)*SC(2a)WQC(2a)[Y(2-aminoethoxy)][2-Nal][2-Me-Leu]E(1c)[3-Aminopropanoyl]-[NH2]] ([X1]SCWQC[AEF][2Nal][αMeL]E[βAla]-NH2; linker 3-6 via CH2COCH2; lactam N-10)
[1]
  Ki: 303 pM

## CC[C@H](C)[C@@H]1NC(=O)Cc2ccc(cc2)CNC(=O)CC[C@@H](C(=O)N[C@@H](CCN)C(=O)N[C@@H](Cc2cccnc2)C(N)=O)NC(=O)[C@](C)(C(C)C)NC(=O)[C@H](Cc2ccc3ccccc3c2)NC(=O)[C@H](Cc2ccc(OCCN)cc2)NC(=O)[C@@H]2CCNC(=O)CC[C@H](NC1=O)C(=O)N[C@@H](Cc1c[nH]c3ccccc13)C(=O)N[C@@H](CCC(N)=O)C(=O)N2 [Compound 157, [4-Aminomethyl-phenylacetyl](1c)*IE(2c)WQ[Dab](2c)[Y(2-aminoethoxy)][2-Nal][2-Me-Val]E(1c)[Dab][3-(3-Pyridyl)-Ala]-[NH2]] ([X1]IEWQ[Dab][AEF][2Nal][αMeV]E[Dab][3Pal]-NH2; lactam 3-6, N-10)
[1]
  Ki: 11.7 pM

## CC(C)C[C@]1(C)NC(=O)[C@H](Cc2ccc3ccccc3c2)NC(=O)[C@H](Cc2ccc(OCCN)cc2)NC(=O)[C@@H]2CSCC(=O)CSC[C@H](NC(=O)[C@H](CO)NC(=O)Cc3ccc(cc3)CNC(=O)CC[C@@H](C(=O)N[C@@H](CCCNC(=N)N)C(N)=O)NC1=O)C(=O)N[C@@H](Cc1c[nH]c3ccccc13)C(=O)N[C@@H](CCC(N)=O)C(=O)N2 [Compound 52, [4-Aminomethyl-phenylacetyl](1c)*SC(2a)WQC(2a)[Y(2-aminoethoxy)][2-Nal][2-Me-Leu]E(1c)R-[NH2]] ([X1]SCWQC[AEF][2Nal][αMeL]ER-NH2; linker 3-6 via CH2COCH2; lactam N-10)
hIL-23R, Ki from IC50 by Cheng-Prusoff equation, read-out: Ki determined affinity
  Ki: 57 pM

## CC(C)C[C@]1(C)NC(=O)[C@H](Cc2ccc3ccccc3c2)NC(=O)[C@H](Cc2ccc(OCCN)cc2)NC(=O)[C@@H]2CCNC(=O)CC[C@H](NC(=O)[C@H](CCC(=O)N3CCCC3)NC(=O)Cc3ccc(cc3)CNC(=O)CC[C@@H](C(=O)N[C@@H](CCN)C(N)=O)NC1=O)C(=O)N[C@@H](Cc1c[nH]c3ccccc13)C(=O)N[C@@H](CCC(N)=O)C(=O)N2 [Compound 145, [4-Aminomethyl-phenylacetyl](1c)*[Q(pyrrolidin)]E(2c)WQ[Dab](2c)[Y(2-aminoethoxy)][2-Nal][2-Me-Leu]E(1c)[Dab]-[NH2]] ([X1]E(Pyrrolidide)EWQ[Dab][AEF][2Nal][αMeL]E[Dab]-NH2; lactam 3-6, N-10)
[1]
  Ki: 723 pM

Source: US20250154198A1, “PEPTIDE INHIBITORS OF INTERLEUKIN-23 RECEPTOR” (Zealand Pharma A/S, priority 2021, published 2025)
